Test results: ChEMBL document CHEMBL3045501, “Anti-inflammatory activity of 2,5-dihydroxycyclohepta-2,4,6-trienone in rats” (Med Chem Res, 2010)

Tests used:
[1] = tested on: Oryctolagus cuniculus; assay: (§1) Inhibition of hyaluronidase-induced capillary permeability in albino Oryctolagus cuniculus (rabbit) assessed as area of subcutaneous spreading of trypan blue at 27.9 umol/kg, po pretreated 1 hr prior to mixture of hyaluronidase and trypan blue challenge measured after 30 min (reference value: 498.8 mm'2); type: functional
[2] = tested on: Rattus norvegicus; assay: Anti-inflammatory activity in Rattus norvegicus Wistar albino (rat) assessed as inhibition of carrageenan-induced paw edema at 69.8 X 10^2 umol/kg, po administered 1 hr prior to carrageenan challenge through oral gavage measured measured 4 hr after carrageenan treatment by plethysmometer; type: functional
[3] = tested on: Rattus norvegicus; assay: Toxicity in Rattus norvegicus Wistar albino (rat) assessed as mortality at 69.8 umol/kg, po; type: organism-based; conditions: in vivo
[4] = tested on: Oryctolagus cuniculus; assay: as §1, with “5” for “30”, “288.5” for “498.8”; type: functional
[5] = tested on: Rattus norvegicus; assay: Toxicity in Rattus norvegicus Wistar albino (rat) assessed as mortality at 139.6 umol/kg, po; type: organism-based; conditions: in vivo
[6] = tested on: Rattus norvegicus; assay: Anti-inflammatory activity in Rattus norvegicus Wistar albino (rat) assessed as inhibition of carrageenan-induced paw edema at 69.8 X 10^2 umol/kg, po administered 1 hr prior to carrageenan challenge through oral gavage measured measured 2 hr after carrageenan treatment by plethysmometer; type: functional
[7] = tested on: Rattus norvegicus; assay: Anti-inflammatory activity in Rattus norvegicus Wistar albino (rat) assessed as inhibition of carrageenan-induced paw edema at 69.8 X 10^2 umol/kg, po administered 1 hr prior to carrageenan challenge through oral gavage measured measured 1 hr after carrageenan treatment by plethysmometer; type: functional
[8] = tested on: Rattus norvegicus; assay: Toxicity in Rattus norvegicus Wistar albino (rat) assessed as lethargy at 54.3 X 10^2 umol/kg, po; type: organism-based; conditions: in vivo
[9] = tested on: Rattus norvegicus; assay: Toxicity in Rattus norvegicus Wistar albino (rat) assessed as drinking frequency at 18.1 to 36.2 X 10^2 umol/kg, po; type: organism-based; conditions: in vivo
[10] = Toxicity in Rattus norvegicus Wistar albino (rat) assessed as mortality at 57.92 X 10^2 umol/kg, po; type: organism-based; conditions: in vivo, read-out: Activity
[11] = tested on: Rattus norvegicus; assay: Toxicity in Rattus norvegicus Wistar albino (rat) assessed as lethargy at 57.92 X 10^2 umol/kg, po; type: organism-based; conditions: in vivo
[12] = tested on: Rattus norvegicus; assay: Toxicity in Rattus norvegicus Wistar albino (rat) assessed as mortality at 18.1 to 54.3 X 10^2 umol/kg, po; type: organism-based; conditions: in vivo
[13] = tested on: Rattus norvegicus; assay: Anti-inflammatory activity in Rattus norvegicus Wistar albino (rat) assessed as inhibition of carrageenan-induced paw edema at 7.24 X 10^2 umol/kg, po administered 1 hr prior to carrageenan challenge through oral gavage measured measured 4 hr after carrageenan treatment by plethysmometer; type: functional
[14] = tested on: Rattus norvegicus; assay: Anti-inflammatory activity in Rattus norvegicus Wistar albino (rat) assessed as inhibition of carrageenan-induced paw edema at 7.24 X 10^2 umol/kg, po administered 1 hr prior to carrageenan challenge through oral gavage measured measured 3 hr after carrageenan treatment by plethysmometer; type: functional
[15] = tested on: Oryctolagus cuniculus; assay: as §1, with “3.62 x 10^2” for “27.9”, “5” for “30”, “288.5” for “498.8”; type: functional
[16] = tested on: Rattus norvegicus; assay: Anti-inflammatory activity in Rattus norvegicus Wistar albino (rat) assessed as inhibition of carrageenan-induced paw edema at 7.24 X 10^2 umol/kg, po administered 1 hr prior to carrageenan challenge through oral gavage measured measured 1 hr after carrageenan treatment by plethysmometer; type: functional
[17] = tested on: Rattus norvegicus; assay: Anti-inflammatory activity in Rattus norvegicus Wistar albino (rat) assessed as inhibition of carrageenan-induced paw edema at 3.62 X 10^2 umol/kg, po administered 1 hr prior to carrageenan challenge through oral gavage measured 4 hr after carrageenan treatment by plethysmometer; type: functional
[18] = tested on: Oryctolagus cuniculus; assay: as §1, with “3.62 x 10^2” for “27.9”; type: functional
[19] = tested on: Rattus norvegicus; assay: Anti-inflammatory activity in Rattus norvegicus Wistar albino (rat) assessed as inhibition of carrageenan-induced paw edema at 14.48 X 10^2 umol/kg, po administered 1 hr prior to carrageenan challenge through oral gavage measured measured 2 hr after carrageenan treatment by plethysmometer; type: functional
[20] = Toxicity in Rattus norvegicus Wistar albino (rat) assessed as mortality at 65.16 X 10^2 umol/kg, po; type: organism-based; conditions: in vivo, read-out: Activity
[21] = Toxicity in Rattus norvegicus Wistar albino (rat) assessed as mortality at 61.54 X 10^2 umol/kg, po; type: organism-based; conditions: in vivo, read-out: Activity
[22] = tested on: Rattus norvegicus; assay: Anti-inflammatory activity in Rattus norvegicus Wistar albino (rat) assessed as inhibition of carrageenan-induced paw edema at 14.48 X 10^2 umol/kg, po administered 1 hr prior to carrageenan challenge through oral gavage measured measured 4 hr after carrageenan treatment by plethysmometer; type: functional
[23] = tested on: Rattus norvegicus; assay: Anti-inflammatory activity in Rattus norvegicus Wistar albino (rat) assessed as inhibition of carrageenan-induced paw edema at 3.62 X 10^2 umol/kg, po administered 1 hr prior to carrageenan challenge through oral gavage measured 2 hr after carrageenan treatment by plethysmometer; type: functional
[24] = tested on: Rattus norvegicus; assay: Anti-inflammatory activity in Rattus norvegicus Wistar albino (rat) assessed as inhibition of carrageenan-induced paw edema at 7.24 X 10^2 umol/kg, po administered 1 hr prior to carrageenan challenge through oral gavage measured measured 2 hr after carrageenan treatment by plethysmometer; type: functional
[25] = tested on: Rattus norvegicus; assay: Anti-inflammatory activity in Rattus norvegicus Wistar albino (rat) assessed as inhibition of carrageenan-induced paw edema at 3.62 X 10^2 umol/kg, po administered 1 hr prior to carrageenan challenge through oral gavage measured 1 hr after carrageenan treatment by plethysmometer; type: functional
[26] = tested on: Rattus norvegicus; assay: Anti-inflammatory activity in Rattus norvegicus Wistar albino (rat) assessed as inhibition of carrageenan-induced paw edema at 14.48 X 10^2 umol/kg, po administered 1 hr prior to carrageenan challenge through oral gavage measured measured 3 hr after carrageenan treatment by plethysmometer; type: functional
[27] = tested on: Rattus norvegicus; assay: Toxicity in Rattus norvegicus Wistar albino (rat) assessed as animal posture at 61.54 umol/kg, po; type: organism-based; conditions: in vivo
[28] = tested on: Rattus norvegicus; assay: Toxicity in Rattus norvegicus Wistar albino (rat) assessed as lethargy at 18.1 to 36.2 X 10^2 umol/kg, po; type: organism-based; conditions: in vivo
[29] = tested on: Oryctolagus cuniculus; assay: as §1, with “7.24 x 10^2” for “27.9”, “5” for “30”, “288.5” for “498.8”; type: functional
[30] = tested on: Oryctolagus cuniculus; assay: as §1, with “7.24 x 10^2” for “27.9”; type: functional
[31] = tested on: Rattus norvegicus; assay: Toxicity in Rattus norvegicus Wistar albino (rat) assessed as mortality at 65.16 to 68.78 X 10^2 umol/kg, po measured after 12 hr; type: organism-based; conditions: in vivo
[32] = tested on: Rattus norvegicus; assay: Anti-inflammatory activity in Rattus norvegicus Wistar albino (rat) assessed as inhibition of carrageenan-induced paw edema at 14.48 X 10^2 umol/kg, po administered 1 hr prior to carrageenan challenge through oral gavage measured measured 1 hr after carrageenan treatment by plethysmometer; type: functional
[33] = tested on: Rattus norvegicus; assay: Anti-inflammatory activity in Rattus norvegicus Wistar albino (rat) assessed as inhibition of carrageenan-induced paw edema at 3.62 X 10^2 umol/kg, po administered 1 hr prior to carrageenan challenge through oral gavage measured 3 hr after carrageenan treatment by plethysmometer; type: functional
[34] = tested on: Rattus norvegicus; assay: Toxicity in Rattus norvegicus Wistar albino (rat) assessed as mortality at 68.78 X 10^2 umol/kg, po; type: organism-based; conditions: in vivo
[35] = Toxicity in po dosed Rattus norvegicus Wistar albino (rat) assessed as mortality; type: organism-based; conditions: in vivo

## COc1ccc2c(c1)c(CC(=O)O)c(C)n2C(=O)c1ccc(Cl)cc1 [INDOMETHACIN]
[1]
  Activity: 279.3 mm2
[2]
  inhibition (INH): 45%
[3]
  Activity: Non-toxic
[4]
  Activity: 227 mm2
[5]
  Activity: Toxic
[6]
  inhibition (INH): 51%
[7]
  inhibition (INH): 50%

## O=c1ccc(O)ccc1O
[8]
  Activity: Toxic
[9]
  Activity: Non-toxic
[10]
  mortality: 16%
[11]
  Activity: Toxic
[12]
  Activity: Non-toxic
[13]
  inhibition (INH): 67%
[14]
  inhibition (INH): 79%
[15]
  Activity: 212.5 mm2
[16]
  inhibition (INH): 41%
[17]
  inhibition (INH): 42%
[18]
  Activity: 196 mm2
[19]
  inhibition (INH): 75%
[20]
  mortality: 66%
[21]
  mortality: 33%
[22]
  inhibition (INH): 75%
[23]
  inhibition (INH): 52%
[24]
  inhibition (INH): 72%
[25]
  inhibition (INH): 48%
[26]
  inhibition (INH): 83%
[27]
  Activity: Toxic
[28]
  Activity: Non-toxic
[29]
  Activity: 256 mm2
[30]
  Activity: 267.5 mm2
[31]
  Activity: Toxic
[32]
  inhibition (INH): 76%
[33]
  inhibition (INH): 45%
[34]
  Activity: Toxic
[35]
  LD50: 6440 µmol/kg
